From patent US20230265151A1, “GIP/GLP1 CO-AGONIST COMPOUNDS” (priority 2020, published 2023)
Read-outs that look alike come from different tables or passages of the source. *1 amine or outer side, *2 acyl side, *3 side chain or, on linkers, in order; H or OH if unused. Where a SMILES comes first, the peptide text is derived from it. Side-chain parts run from the residue outwards. [ ]: non-standard residue; d: D form. The star is where a group is joined. αMePhe(2-F) = C[C@](N)(Cc1ccccc1F)C(=O)O; γGlu = O=C(O)[C@H](CCC(=O)[*:2])N[*:1]; C14 diacid = O=C(O)CCCCCCCCCCCCC(=O)*; αMeY = C[C@](N)(Cc1ccc(O)cc1)C(=O)O; 4Pal = N[C@@H](Cc1ccncc1)C(=O)O; αMeL = CC(C)C[C@](C)(N)C(=O)O; Orn = NCCC[C@H](N)C(=O)O; AEEA = NCCOCCOCC(=O)O; Aib = CC(C)(N)C(=O)O

What was measured:
Format in all cases: cell-based
hGCGR = target: T1, hGCGR (Homo sapiens, UniProt P47871); assay: Functional cAMP formation (HTRF) in HEK-293 clonal cells expressing hGCGR, 0.1% bovine casein, without or with 1.0% human serum albumin; conditions: geometric mean
T1 construct: expressed in transfected cells
Method in brief: (§1)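 Cells were stimulated with peptide for 30 min at 37° C, then lysed in buffer carrying cAMP-d2 and anti-cAMP Eu3+-cryptate for a competitive HTRF read after at least 60 min at room temperature. The 665/620 nm ratio was converted to nM cAMP against a standard curve.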

hGIPR = target: T2, hGIPR (Homo sapiens, UniProt P48546); assay: Functional cAMP formation (HTRF) in HEK-293 clonal cells expressing hGIPR, 0.1% bovine casein, without or with 1.0% human serum albumin; conditions: for EC50: cAMP, incubated at 37° C., 0.1% bovine casein (no human serum albumin), geometric mean
T2 construct: expressed in transfected cells
T2 sequence (P48546 22-466): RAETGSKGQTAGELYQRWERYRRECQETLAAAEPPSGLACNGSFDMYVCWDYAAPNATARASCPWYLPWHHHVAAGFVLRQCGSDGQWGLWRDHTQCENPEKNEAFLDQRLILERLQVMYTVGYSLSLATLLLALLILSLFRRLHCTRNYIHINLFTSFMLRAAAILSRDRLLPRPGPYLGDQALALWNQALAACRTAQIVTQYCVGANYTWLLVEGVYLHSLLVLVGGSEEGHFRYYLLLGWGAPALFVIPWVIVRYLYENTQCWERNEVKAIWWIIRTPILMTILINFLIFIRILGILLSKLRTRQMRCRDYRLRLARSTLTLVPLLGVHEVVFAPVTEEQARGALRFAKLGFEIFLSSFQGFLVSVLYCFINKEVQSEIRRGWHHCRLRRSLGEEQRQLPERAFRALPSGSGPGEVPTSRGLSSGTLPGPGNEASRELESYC
Method in brief: as §1

hGLP-1R = hGLP-1R (Homo sapiens, UniProt P43220); assay: Functional cAMP formation (HTRF) in HEK-293 clonal cells expressing hGLP-1R, 0.1% bovine casein, without or with 1.0% human serum albumin; parameters: expressed in transfected cells; conditions: for EC50: geometric mean
Method in brief: as §1

[1] = 0.1% bovine casein and 1.0% human serum albumin, 37° C., read-out: hGCGR EC50, nM (SEM, n)
[2] = cAMP, incubated at 37° C., 0.1% bovine casein (no human serum albumin), read-out: hGCGR EC50, nM (SEM, n)
[3] = HEK293, 0.1% bovine casein and 1.0% human serum albumin, 37° C., percent of maximal response to GIP(1-42)NH2, read-out: hGIPR Emax, % ± SEM
[4] = HEK293, 0.1% bovine casein and 1.0% human serum albumin, 37° C., percent of maximal response to GLP-1(7-36)NH2, read-out: hGLP-1R Emax, % ± SEM
[5] = cAMP, incubated at 37° C., 0.1% bovine casein (no human serum albumin), read-out: hGLP-1R EC50, nM (SEM, n)

hGLP-1R, sequence (P43220 24-463): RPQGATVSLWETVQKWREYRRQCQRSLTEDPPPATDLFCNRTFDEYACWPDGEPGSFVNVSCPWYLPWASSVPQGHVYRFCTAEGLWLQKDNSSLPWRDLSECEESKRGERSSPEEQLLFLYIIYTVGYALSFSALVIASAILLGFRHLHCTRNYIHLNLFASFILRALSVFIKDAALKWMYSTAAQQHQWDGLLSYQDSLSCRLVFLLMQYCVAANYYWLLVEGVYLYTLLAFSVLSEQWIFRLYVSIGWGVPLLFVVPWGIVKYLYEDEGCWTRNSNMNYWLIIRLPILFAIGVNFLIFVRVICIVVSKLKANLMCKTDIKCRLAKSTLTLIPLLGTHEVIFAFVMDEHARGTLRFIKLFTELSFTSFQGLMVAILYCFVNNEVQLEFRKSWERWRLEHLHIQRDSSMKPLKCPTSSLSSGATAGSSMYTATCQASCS
T1 sequence (P47871 26-477): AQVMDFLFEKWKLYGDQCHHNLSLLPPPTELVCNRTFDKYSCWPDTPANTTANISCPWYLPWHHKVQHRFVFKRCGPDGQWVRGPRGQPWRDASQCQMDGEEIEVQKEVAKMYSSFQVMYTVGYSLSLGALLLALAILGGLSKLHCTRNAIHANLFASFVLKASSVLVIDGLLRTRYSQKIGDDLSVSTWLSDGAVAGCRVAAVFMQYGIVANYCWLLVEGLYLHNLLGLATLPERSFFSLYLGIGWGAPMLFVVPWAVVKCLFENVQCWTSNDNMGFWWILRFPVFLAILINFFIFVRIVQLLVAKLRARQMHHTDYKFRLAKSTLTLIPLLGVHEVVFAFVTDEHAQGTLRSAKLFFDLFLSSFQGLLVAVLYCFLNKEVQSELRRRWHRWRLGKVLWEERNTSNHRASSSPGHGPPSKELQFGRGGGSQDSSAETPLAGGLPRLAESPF

CC[C@H](C)[C@H](NC(=O)CNC(=O)[C@H](Cc1ccncc1)NC(=O)[C@H](CC(=O)O)NC(=O)[C@H](CO)NC(=O)[C@@H](NC(=O)[C@](C)(Cc1ccccc1F)NC(=O)[C@@H](NC(=O)CNC(=O)[C@H](CCC(=O)O)NC(=O)C(C)(C)NC(=O)[C@@H](N)Cc1ccc(O)cc1)[C@@H](C)O)[C@@H](C)O)C(=O)N[C@@](C)(CC(C)C)C(=O)N[C@@H](CC(C)C)C(=O)N[C@@H](CC(=O)O)C(=O)N[C@@H](CCCN)C(=O)N[C@@H](CCCCNC(=O)COCCOCCNC(=O)COCCOCCNC(=O)CC[C@H](NC(=O)CCCCCCCCCCCCC(=O)O)C(=O)O)C(=O)N[C@@H](C)C(=O)N[C@@H](CCC(N)=O)C(=O)NC(C)(C)C(=O)N[C@@H](CCC(=O)O)C(=O)N[C@@H](Cc1ccccc1)C(=O)N[C@H](C(=O)N[C@H](CCC(=O)O)C(=O)N[C@@](C)(Cc1ccc(O)cc1)C(=O)N[C@@H](CC(C)C)C(=O)N[C@H](C(=O)N[C@@H](CCC(=O)O)C(=O)NCC(=O)NCC(=O)N[C@@H](CCCCNC(=O)COCCOCCNC(=O)COCCOCCNC(=O)CC[C@H](NC(=O)CCCCCCCCCCCCC(=O)O)C(=O)O)C(=O)N[C@@H](CO)C(=O)N[C@@H](CO)C(=O)NCC(=O)N[C@@H](C)C(=O)N1CCC[C@H]1C(=O)N1CCC[C@H]1C(=O)N1CCC[C@H]1C(=O)N[C@@H](CO)C(N)=O)[C@@H](C)CC)[C@@H](C)CC [Example 100] (H-Y[Aib]EGT[αMePhe(2-F)]TSD[4Pal]GI[αMeL]LD[Orn]K([AEEA-AEEA-γGlu-C14 diacid])AQ[Aib]EFI[dE][αMeY]LIEGGK([AEEA-AEEA-γGlu-C14 diacid])SSGAPPPS-NH2; N-terminus assumed)
EC50 (hGCGR; [1]): > 9950 nM
EC50 (hGCGR; [2]): > 9950 nM
Emax (hGIPR; [3]): 98.3%
Emax (hGLP-1R; [4]): 123%
Emax (hGLP-1R; HEK293, percent of maximal response to GLP-1(7-36)NH2, 37° C., 0.1% bovine casein, arithmetic mean, read-out: hGLP-1R Emax, % ± SEM): 111%
EC50 (hGLP-1R; [5]): 11.4 nM

CC[C@H](C)[C@H](NC(=O)[C@H](CC(C)C)NC(=O)[C@](C)(Cc1ccc(O)cc1)NC(=O)[C@@H](CCC(=O)O)NC(=O)[C@@H](NC(=O)[C@H](Cc1ccccc1)NC(=O)[C@H](CCC(=O)O)NC(=O)C(C)(C)NC(=O)[C@H](CCC(N)=O)NC(=O)[C@H](C)NC(=O)[C@H](CCCCNC(=O)COCCOCCNC(=O)COCCOCCNC(=O)CC[C@H](NC(=O)CCCCCCCCCCCCC(=O)O)C(=O)O)NC(=O)[C@H](CCCN)NC(=O)[C@H](CC(=O)O)NC(=O)[C@H](CC(C)C)NC(=O)[C@](C)(CC(C)C)NC(=O)[C@@H](NC(=O)C(C)(C)NC(=O)[C@H](Cc1ccncc1)NC(=O)[C@H](CC(=O)O)NC(=O)[C@H](CO)NC(=O)[C@@H](NC(=O)[C@](C)(Cc1ccccc1F)NC(=O)[C@@H](NC(=O)CNC(=O)[C@H](CCC(=O)O)NC(=O)C(C)(C)NC(=O)[C@@H](N)Cc1ccc(O)cc1)[C@@H](C)O)[C@@H](C)O)[C@@H](C)CC)[C@@H](C)CC)C(=O)N[C@@H](CCC(=O)O)C(=O)NCC(=O)NCC(=O)N[C@@H](CCCCNC(=O)COCCOCCNC(=O)COCCOCCNC(=O)CC[C@H](NC(=O)CCCCCCCCCCCCC(=O)O)C(=O)O)C(=O)N[C@@H](CO)C(=O)N[C@@H](CO)C(=O)NCC(=O)N[C@@H](C)C(=O)N1CCC[C@H]1C(=O)N1CCC[C@H]1C(=O)N1CCC[C@H]1C(=O)N[C@@H](CO)C(N)=O [Example 89]
EC50 (hGCGR; [1]): > 9950 nM
EC50 (hGCGR; [2]): > 9950 nM
Emax (hGIPR; [3]): 94.2%
Emax (hGIPR; HEK293, percent of maximal response to GIP(1-42)NH2, 37° C., 0.1% bovine casein, arithmetic mean, read-out: hGIPR Emax, % ± SEM): 88.9 ± 3.76%
EC50 (hGIPR; read-out: hGIPR EC50, nM (SEM, n)): 0.0301 nM
EC50 (hGLP-1R; [5]): 1.03 nM

CC[C@H](C)[C@H](NC(=O)[C@H](CCCN)NC(=O)[C@H](CC(=O)O)NC(=O)[C@H](CC(C)C)NC(=O)[C@](C)(CC(C)C)NC(=O)[C@@H](NC(=O)[C@H](CO)NC(=O)[C@H](Cc1ccc(OC)cc1)NC(=O)[C@H](CC(=O)O)NC(=O)[C@H](CO)NC(=O)[C@@H](NC(=O)[C@](C)(Cc1ccccc1F)NC(=O)[C@@H](NC(=O)CNC(=O)[C@H](CCC(=O)O)NC(=O)C(C)(C)NC(=O)[C@@H](N)Cc1ccc(O)cc1)[C@@H](C)O)[C@@H](C)O)[C@@H](C)CC)C(=O)N[C@@H](C)C(=O)N[C@@H](CCC(N)=O)C(=O)NC(C)(C)C(=O)N[C@@H](CCC(=O)O)C(=O)N[C@@H](Cc1ccccc1)C(=O)N[C@H](C(=O)N[C@@H](CCCCNC(=O)COCCOCCNC(=O)COCCOCCNC(=O)CC[C@H](NC(=O)CCCCCCCCCCCCC(=O)O)C(=O)O)C(=O)N[C@@](C)(Cc1ccc(O)cc1)C(=O)N[C@@H](CC(C)C)C(=O)N[C@H](C(=O)N[C@@H](CCCCNC(=O)COCCOCCNC(=O)COCCOCCNC(=O)CC[C@H](NC(=O)CCCCCCCCCCCCC(=O)O)C(=O)O)C(=O)NCC(=O)NCC(=O)N1CCC[C@H]1C(=O)N[C@@H](CO)C(=O)N[C@@H](CO)C(=O)NCC(=O)N[C@@H](C)C(=O)N1CCC[C@H]1C(=O)N1CCC[C@H]1C(=O)N1CCC[C@H]1C(=O)N[C@@H](CO)C(N)=O)[C@@H](C)CC)[C@@H](C)CC [Example 262] (H-Y[Aib]EGT[αMePhe(2-F)]TSDY(Me)SI[αMeL]LD[Orn]IAQ[Aib]EFIK([AEEA-AEEA-γGlu-C14 diacid])[αMeY]LIK([AEEA-AEEA-γGlu-C14 diacid])GGPSSGAPPPS-NH2; N-terminus assumed)
EC50 (hGCGR; [1]): > 9950 nM
EC50 (hGCGR; cAMP, 37° C., 0.1% bovine casein (no human serum albumin), read-out: hGCGR EC50, nM (SEM, n)): > 9950 nM
Emax (hGIPR; [3]): 79.7%
Emax (hGIPR; HEK293, cAMP, 37° C., 0.1% bovine casein, percent of maximal response to GIP(1-42)NH2, arithmetic mean, read-out: hGIPR Emax, % ± SEM): 89.8%
Emax (hGLP-1R; [4]): 115%
Emax (hGLP-1R; HEK293, cAMP, 37° C., 0.1% bovine casein, percent of maximal response to GLP-1(7-36)NH2, arithmetic mean, read-out: hGLP-1R Emax, % ± SEM): 105%

CC[C@H](C)[C@H](NC(=O)[C@H](CC(C)C)NC(=O)[C@](C)(Cc1ccc(O)cc1)NC(=O)[C@@H](CCC(=O)O)NC(=O)[C@@H](NC(=O)[C@H](Cc1ccccc1)NC(=O)[C@H](CCC(=O)O)NC(=O)C(C)(C)NC(=O)[C@H](CCC(N)=O)NC(=O)[C@H](C)NC(=O)[C@H](CCCCNC(=O)COCCOCCNC(=O)COCCOCCNC(=O)CC[C@H](NC(=O)CCCCCCCCCOc1ccc(C(=O)O)cc1)C(=O)O)NC(=O)[C@H](CCCN)NC(=O)[C@H](CC(=O)O)NC(=O)[C@H](CC(C)C)NC(=O)[C@](C)(CC(C)C)NC(=O)[C@@H](NC(=O)C(C)(C)NC(=O)[C@H](Cc1ccncc1)NC(=O)[C@H](CC(=O)O)NC(=O)[C@H](CO)NC(=O)[C@@H](NC(=O)[C@](C)(Cc1ccccc1F)NC(=O)[C@@H](NC(=O)CNC(=O)[C@H](CCC(=O)O)NC(=O)C(C)(C)NC(=O)[C@@H](N)Cc1ccc(O)cc1)[C@@H](C)O)[C@@H](C)O)[C@@H](C)CC)[C@@H](C)CC)C(=O)N[C@@H](CCC(=O)O)C(=O)NCC(=O)NCC(=O)N1CCC[C@H]1C(=O)N[C@@H](CO)C(=O)N[C@@H](CO)C(=O)NCC(=O)N[C@@H](C)C(=O)N1CCC[C@H]1C(=O)N1CCC[C@H]1C(=O)N1CCC[C@H]1C(=O)N[C@@H](CO)C(=O)N[C@@H](CCCCNC(=O)COCCOCCNC(=O)COCCOCCNC(=O)CC[C@H](NC(=O)CCCCCCCCCOc1ccc(C(=O)O)cc1)C(=O)O)C(N)=O [Example 245]
EC50 (hGCGR; hGCGR EC50, nM (SEM, n), 0.1% bovine casein and 1.0% human serum albumin, 37° C.): > 9950 nM
EC50 (hGCGR; hGCGR EC50, nM (SEM, n), cAMP, incubated at 37° C., 0.1% bovine casein (no human serum albumin)): > 9950 nM
Emax (hGIPR; HEK293, read-out: hGIPR Emax, % ± SEM, 0.1% bovine casein and 1.0% human serum albumin, 37° C., percent of maximal response to GIP(1-42)NH2): 81.9%
Emax (hGIPR; HEK293, read-out: hGIPR Emax, % ± SEM, percent of maximal response to GIP(1-42)NH2, 37° C., 0.1% bovine casein, arithmetic mean): 96.7%
EC50 (hGIPR; hGIPR EC50, nM (SEM, n)): 0.0195 nM
Emax (hGLP-1R; HEK293, read-out: hGLP-1R Emax, % ± SEM, 0.1% bovine casein and 1.0% human serum albumin, 37° C., percent of maximal response to GLP-1(7-36)NH2): 93.8%
Emax (hGLP-1R; HEK293, read-out: hGLP-1R Emax, % ± SEM, percent of maximal response to GLP-1(7-36)NH2, 37° C., 0.1% bovine casein, arithmetic mean): 88.9%
EC50 (hGLP-1R; hGLP-1R EC50, nM (SEM, n), 0.1% bovine casein and 1.0% human serum albumin, 37° C.): 27 nM
EC50 (hGLP-1R; hGLP-1R EC50, nM (SEM, n), cAMP, incubated at 37° C., 0.1% bovine casein (no human serum albumin)): 1.88 nM
